Like-named read-outs stand apart in the source and are kept apart here.

Data set [1] has as its system Lactobacillus brevis DDH (diol dehydratase), wild type, SEQ ID NO: 18. Conditions: substrate 2,3-butanediol, coenzyme B12; cited from earlier work.
The target of data set [2] is T1, Clostridium autoethanogenum BDH (2,3-butanediol dehydrogenase), wild type, SEQ ID NO: 14 (Clostridium autoethanogenum, UniProt A0ABM5NRF0).
T1 sequence (A0ABM5NRF0 1-351): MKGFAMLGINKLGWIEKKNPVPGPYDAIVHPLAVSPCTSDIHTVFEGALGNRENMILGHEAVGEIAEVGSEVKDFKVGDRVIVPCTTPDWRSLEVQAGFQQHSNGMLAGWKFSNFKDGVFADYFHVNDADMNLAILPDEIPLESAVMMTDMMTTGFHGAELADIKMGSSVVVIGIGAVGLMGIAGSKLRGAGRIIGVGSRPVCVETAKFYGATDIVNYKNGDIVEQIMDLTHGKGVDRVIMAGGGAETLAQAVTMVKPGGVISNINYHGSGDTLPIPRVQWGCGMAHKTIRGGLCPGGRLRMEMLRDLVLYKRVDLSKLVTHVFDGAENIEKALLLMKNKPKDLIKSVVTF
Description: kinetic parameters of BDH. The class given is biochemical. Conditions: coenzyme NADH, pH 7.5, room temperature.

Data set [3] addresses T2, Clostridium autoethanogenum BDH (2,3-butanediol dehydrogenase) variant BDH:S199A, SEQ ID NO: 16 (Clostridium autoethanogenum, UniProt A0ABM5NRF0, S199A).
T2 sequence (A0ABM5NRF0 1-351 S199A): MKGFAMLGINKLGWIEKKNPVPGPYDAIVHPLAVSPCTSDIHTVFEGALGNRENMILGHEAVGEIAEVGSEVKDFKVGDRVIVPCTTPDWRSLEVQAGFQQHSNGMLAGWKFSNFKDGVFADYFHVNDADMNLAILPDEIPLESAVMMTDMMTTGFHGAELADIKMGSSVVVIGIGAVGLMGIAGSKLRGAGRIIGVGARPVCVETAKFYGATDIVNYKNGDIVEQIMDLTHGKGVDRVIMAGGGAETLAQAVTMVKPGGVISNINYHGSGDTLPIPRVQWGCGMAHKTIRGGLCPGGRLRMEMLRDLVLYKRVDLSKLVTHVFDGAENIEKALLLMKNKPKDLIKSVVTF
Description: kinetic parameters of BDH:S199A. Type of data set: biochemical. The following applies: for kcat / kcat/Km: pH 7.5, room temperature. As for the experimental part:
(§1) The kinetic parameters of EtDH and EtDH:D46G were identified by reacting the EtDH and EtDH:D46G with a reaction mixture containing 100 mM glycine-NaOH buffer solution (pH 9.5), 5 mM Mg^2+, 3 mM NAD^+/NADP^+ and 0.5 to 100 mM ethanol at room temperature. The kinetic parameters of FLS and variants thereof were identified by reacting FLS and variants thereof with a reaction mixture containing 100 mM phosphate buffer solution (pH 8.0), 1 mM Mg^+, 0.1 mM TPP and 0.5 to 20 mM acetaldehyde at room temperature. The kinetic parameters of BDH and BDH:S199A were identified by reacting BDH and BDH:S199A with a reaction mixture containing 50 mM Tris-HCl buffer solution (pH 7.5), 0.2 mM NADPH, 1 mM DTT; 0.5 to 100 mM acetoin or 0.5 to 10 mM butanone at room temperature. The Km and kcat values were identified using nonlinear regression fitting of the Michaelis-Menten equation and the fitting were repeated three times.
(§2) In order to compare the catalytic efficiencies via measurement of kinetic parameters of cascade enzymes and variants thereof in accordance with the present disclosure, the following experiment was performed. Specifically, the kinetic parameters of EtDH and EtDH:D46G were identified by reacting EtDH and EtDH:D46G with a reaction mixture containing 100 mM glycine-NaOH buffer solution (pH 9.5), 5 mM Mg^2+, 3 mM NAD^+/NADP^+ and 0.5 to 100 mM ethanol at room temperature. The kinetic parameters of FLS and variants thereof were identified by reacting FLS and variants thereof with a reaction mixture containing 100 mM phosphate buffer solution (pH 8.0), 1 mM Mg^+, 0.1 mM TPP and 0.5 to 20 mM acetaldehyde at room temperature. The kinetic parameters of BDH and BDH:S199A were identified by reacting BDH and BDH:S199A with a reaction mixture containing 50 mM Tris-HCl buffer solution (pH 7.5), 0.2 mM NADPH, 1 mM DTT; and 0.5 to 100 mM acetoin or 0.5 to 10 mM butanone at room temperature. Km and kcat values as substrate affinity were identified using nonlinear regression fitting of the Michaelis-Menten equation and the fitting were repeated three times. The test results of DDH and NOX were compared with previous results [(S. Kwak, et al., Bioresource Technol., 2013, 135, 432), and (M. Kopke, et al., Appl. Environ. Microbiol., 2014, 80, 3394)].

Data set [4] relates to Cupriavidus necator EtDH (ethanol dehydrogenase) variant EtDH:D46G, SEQ ID NO: 6. Conditions: pH 9.5, room temperature. As for the experimental part: as §1, §2
Data set [5] concerns Cupriavidus necator EtDH (ethanol dehydrogenase), wild type, SEQ ID NO: 4. The following applies: substrate ethanol, pH 9.5, room temperature. As to the method:
as §1, §2

Data set [6] concerns Lactobacillus rhamnosus NOX (NADH oxidase), SEQ ID NO: 2. The following applies: substrate O2, coenzyme NADH; cited from earlier work.
Substrate in data set [7]: CCC(C)=O
Description: kinetic parameters of BDH. The class given is biochemical, Clostridium autoethanogenum. Conditions: other: substrate butanone, coenzyme NADPH (0.2 mM), pH 7.5, room temperature.

Substrate in data set [8]: CC(=O)C(C)O
Description: kinetic parameters of BDH. Conditions: other: substrate acetoin, coenzyme NADPH (0.2 mM), pH 7.5, room temperature. Type of data set: biochemical, Clostridium autoethanogenum.

Substrate in data set [9]: CCC(C)=O
Description: kinetic parameters of BDH:S199A. Conditions: other: substrate butanone, coenzyme NADPH (0.2 mM), pH 7.5, room temperature. The class given is biochemical, Clostridium autoethanogenum.

The mark [10] stands for this setting: substrate acetoin, coenzyme NADH.
Where [11] appears, read: substrate acetoin, coenzyme NADPH (0.2 mM).
Setting [12] is: substrate butanone, coenzyme NADH.
[13] abbreviates: second line of EtDH:D46G, coenzyme printed NAD^+.
[14] abbreviates: substrate ethanol, coenzyme NAD^+ (3 mM).

What is called Km is the concentration of substrate that gives half-maximal velocity. For orientation: kcat means the number of substrate molecules converted per active site and unit of time at saturation. The kcat/Km is the turnover number divided by the Michaelis constant. For the molecule `C[C@H](O)[C@@H](C)O` [2,3-butanediol], in data set [1], the Michaelis-Menten constant (Km) was 10400 µM, the turnover number (kcat) was 35 s⁻¹ and the kcat/Km was 3400 M⁻¹ s⁻¹.
As to `CC(=O)C(C)O` (stereo not shown) [Acetoin], the kcat in data set [2] (substrate acetoin) was 0 s⁻¹; in [3] (setting [10]), 0 s⁻¹; in [3] (setting [11]), 224.3 ± 9.72 s⁻¹. For the same molecule, the specificity constant (kcat/Km) in [2] (substrate acetoin) was 0 M⁻¹ s⁻¹; in data set [3] (setting [10]), 0 M⁻¹ s⁻¹; in [3] (setting [11]), 19310 M⁻¹ s⁻¹.
For `CCC(C)=O` [Butanone], in [2] (substrate butanone), the kcat worked out at 0 s⁻¹ and the kcat/Km turned out to be 0 M⁻¹ s⁻¹. In data set [3] (setting [12]), the kcat stood at 0 s⁻¹ and the kcat/Km is 0 M⁻¹ s⁻¹. Moreover, the “catalytic efficiency compared to wild-type BDH” value in data set [3] (substrate butanone, coenzyme NADPH) is reported as “increases catalytic efficiency”.
In the case of `CCO` [Ethanol], the Km was 600 ± 20 µM in [4] (setting [13]), 570 ± 30 µM in data set [4] (setting [14]) and 370 ± 50 µM in data set [5] (coenzyme NAD^+ (3 mM)). Besides, the turnover number (kcat) in [4] (setting [13]) was 0.99 ± 0.03 s⁻¹; in data set [4] (setting [14]), 5.85 ± 0.08 s⁻¹; in data set [5] (coenzyme NADP^+ (3 mM)) it was 0 s⁻¹; in data set [5] (coenzyme NAD^+ (3 mM)), 6.28 ± 0.11 s⁻¹. Besides, the kcat/Km in [4] (setting [13]) was determined as 1650 M⁻¹ s⁻¹; in data set [4] (setting [14]) it was 9970 M⁻¹ s⁻¹; in [5] (coenzyme NADP^+ (3 mM)), 0 M⁻¹ s⁻¹; in [5] (coenzyme NAD^+ (3 mM)), 17090 M⁻¹ s⁻¹.
On to `O=O` [O2], for which, in data set [6], the turnover number (kcat) was 218.7 s⁻¹ and the catalytic efficiency (kcat/Km) was 3.77e+07 M⁻¹ s⁻¹.

B1: Clostridium autoethanogenum BDH (2,3-butanediol dehydrogenase), wild type, SEQ ID NO: 14 (Clostridium autoethanogenum DSM 10061) (protein)
chain: MKGFAMLGINKLGWIEKKNPVPGPYDAIVHPLAVSPCTSDIHTVFEGALGNRENMILGHEAVGEIAEVGSEVKDFKVGDRVIVPCTTPDWRSLEVQAGFQQHSNGMLAGWKFSNFKDGVFADYFHVNDADMNLAILPDEIPLESAVMMTDMMTTGFHGAELADIKMGSSVVVIGIGAVGLMGIAGSKLRGAGRIIGVGSRPVCVETAKFYGATDIVNYKNGDIVEQIMDLTHGKGVDRVIMAGGGAETLAQAVTMVKPGGVISNINYHGSGDTLPIPRVQWGCGMAHKTIRGGLCPGGRLRMEMLRDLVLYKRVDLSKLVTHVFDGAENIEKALLLMKNKPKDLIKSVVTF
For the molecule B1, in data set [7], the Km is 1940 ± 50 µM, the kcat was found to be 29.9 ± 1.02 s⁻¹ and the kcat/Km came out at 15400 M⁻¹ s⁻¹. Besides, the Km in data set [8] was found to be 84560 ± 7960 µM.

B2: Clostridium autoethanogenum BDH (2,3-butanediol dehydrogenase) variant BDH:S199A, SEQ ID NO: 16 (Clostridium autoethanogenum DSM 10061; S199A) (protein)
chain: MKGFAMLGINKLGWIEKKNPVPGPYDAIVHPLAVSPCTSDIHTVFEGALGNRENMILGHEAVGEIAEVGSEVKDFKVGDRVIVPCTTPDWRSLEVQAGFQQHSNGMLAGWKFSNFKDGVFADYFHVNDADMNLAILPDEIPLESAVMMTDMMTTGFHGAELADIKMGSSVVVIGIGAVGLMGIAGSKLRGAGRIIGVGARPVCVETAKFYGATDIVNYKNGDIVEQIMDLTHGKGVDRVIMAGGGAETLAQAVTMVKPGGVISNINYHGSGDTLPIPRVQWGCGMAHKTIRGGLCPGGRLRMEMLRDLVLYKRVDLSKLVTHVFDGAENIEKALLLMKNKPKDLIKSVVTF
Take B2: in [9], the Michaelis constant (Km) was 1080 ± 90 µM, the kcat is 40.8 ± 1.42 s⁻¹ and the kcat/Km is 37800 M⁻¹ s⁻¹.

Values taken from patent publication US11441142B2, “FLS variant having increased activity” (KONKUK UNIVERSITY INDUSTRIAL COOPERATION CORPORATION, priority 2017, dated 2022).
